The first series is described as follows: in vitro. Particulars: human, hela cells, % viability.
For orientation: viability means a read-out of living cells in per cent, often relative to untreated cells. With `Cc1nn(C)c(Cl)c1S(=O)(=O)Nc1nnc(C(F)(F)F)s1` [CBK062003], the viability at 28.5 h, 10 µM was found to be 92%.

For `O=C(CSc1cccc2c(SCC(=O)c3ccccc3)cccc12)c1ccccc1` [CBK261255], the viability at 28.5 h, 10 µM amounted to 87.9%.

`CC(Sc1nc2ccccc2[nH]1)C(=O)O` (stereo not drawn) [CBK263063]: the viability at 28.5 h, 10 µM was 101%.

Consider `CC(C)(C)NC(=O)N/N=C/c1[nH]ncc1Br` [CBK017439], for which the viability at 28.5 h, 10 µM was found to be 96%.

As for `COc1ccc(CCCC(=O)Nc2c(C)nn(C)c2N2CCNCC2)cc1OC` [CBK050252T], the viability at 28.5 h, 10 µM was 93%.

On to `O=S(=O)(c1cccc(C(F)(F)F)c1)n1ccc2c(CN3CCCC3)cccc21` [CBK116168T], for which the viability at 28.5 h, 10 µM came to 111%.

With `O=C(CSc1n[nH]c(=O)[nH]c1=O)N/N=C/c1ccc(O)cc1` [CBK263488], the viability at 28.5 h, 10 µM came to 95.4%.

Take `O=S(=O)(Nc1nccnc1-c1cccs1)C1CC1` [CBK050764]: the viability at 28.5 h, 10 µM worked out at 93.9%.

As for `COc1ccc(O)c(C(=O)c2cnn(-c3ccc(Cl)c(C(=O)O)c3)c2)c1` [CBK297914], the viability at 28.5 h, 10 µM came out at 90.2%.

As for `Cc1noc(C)c1C(=O)Nc1ccc(N2CCOCC2)c2nonc12` [CBK268125], the viability at 28.5 h, 10 µM was 94.7%.

Consider `O=C(O)CCC(C(=O)O)N1C(=O)c2c(Cl)c(Cl)c(Cl)c(Cl)c2C1=O` (stereo not drawn) [CBK264308], for which the viability at 28.5 h, 10 µM was 102%.

Consider `COc1ccc(-c2c(C)nn3c(=O)c(Cc4ccccc4)c(C)[nH]c23)cc1` [CBK266951], for which the viability at 28.5 h, 10 µM is 94.2%.

`CCCCN(C)c1nccnc1-c1cccc(O)c1` [CBK037652]: the viability at 28.5 h, 10 µM was determined as 99%.

For the compound `Cc1cc(C)n(C2CN(C(=O)NCCCOc3cccnc3)C2)n1` [CBK307632], the viability at 28.5 h, 10 µM worked out at 84.1%.

As for `Cc1[nH]c(=O)[nH]c(=O)c1CC(=O)N1CCCCC1CN1CCCCC1` (stereo not drawn) [CBK286344], the viability at 28.5 h, 10 µM came to 98.8%.

On to `CCC(C)CC(=O)NS(=O)(=O)c1cc(C#N)ccc1C` (stereo not drawn) [CBK306487], for which the viability at 28.5 h, 10 µM came to 88.1%.

With `CCC(=O)N1c2ccc(C(O)CN3CCSCC3)cc2CC1C` (stereo not drawn) [CBK283122], the viability at 28.5 h, 10 µM stood at 91.5%.

For the compound `COc1cc(C(=O)N2CCN(C(=O)CC(C)C)CC2)cc(OC)c1OC` [CBK003604], the viability at 28.5 h, 10 µM came to 99.2%.

In the case of `CN(c1cccc(NS(=O)(=O)c2ccc3ccccc3c2)c1)S(C)(=O)=O` [CBK267507], the viability at 28.5 h, 10 µM was 85.7%.

As to `Cc1csc(CN(C)C(=O)c2cc3sccc3[nH]2)n1` [CBK304334], the viability at 28.5 h, 10 µM is 92.7%.

As to `Cc1c(S(=O)(=O)N2CCN(C3CCN(C)CC3)CC2)sc2ccc(C(C)C)cc12` [CBK170352], the viability at 28.5 h, 10 µM amounted to 105%.

Regarding `O=C(Nc1ccc(C2(c3ccc(NC(=O)c4cccc5ccccc45)cc3)c3ccccc3-c3ccccc32)cc1)c1cccc2ccccc12` [CBK261163], the viability at 28.5 h, 10 µM turned out to be 102%.

Take `Cc1[nH]c2ccc(Cl)cc2c1CC(=O)N(C)CCN(C)C` [CBK282700]: the viability at 28.5 h, 10 µM came out at 95.5%.

Consider `Cc1ccc(S(=O)(=O)NC(C)C(=O)Nc2ccc(C)c(Cl)c2)cc1` (stereo not drawn) [CBK266263], for which the viability at 28.5 h, 10 µM came to 98%.

In the case of `Cc1nn(C(C)CC(=O)NC2CCCOC2)c(C)c1C` (stereo not drawn) [CBK283133], the viability at 28.5 h, 10 µM amounted to 112%.

`CN(C)CCN(Cc1cccnc1)C(=O)C1(c2ccccc2F)CC1` [CBK282771]: the viability at 28.5 h, 10 µM worked out at 97%.

For the compound `CC(=O)Nc1ccc(S(=O)(=O)N2CCN(S(=O)(=O)c3ccc(C)cc3)CC2)cc1` [CBK264276], the viability at 28.5 h, 10 µM amounted to 101%.

For `Cc1ccc(C(=O)N2CCN(S(=O)(=O)N3CCCCCC3)CC2)cc1` [CBK269249], the viability at 28.5 h, 10 µM was 101%.

With `O=C(O)CSc1nnc2ccc(C(F)(F)F)cn12` [CBK018930], the viability at 28.5 h, 10 µM came out at 81.3%.

Consider `O=c1[nH]c(=O)c2cc(S(=O)(=O)Nc3ccc(N4CCCCCC4)cc3)ccc2[nH]1` [CBK286361], for which the viability at 28.5 h, 10 µM worked out at 81.4%.

As for `O=C(Nc1ccc(-c2nc3cc(-c4nc5cc(NC(=O)c6cccs6)ccc5[nH]4)ccc3[nH]2)cc1)c1cccs1` [CBK261614], the viability at 28.5 h, 10 µM is 97.6%.

For `Cc1c(C(=O)N2CCCCC2)sc2nc(C(F)(F)F)nn12` [CBK006455], the viability at 28.5 h, 10 µM worked out at 105%.

As for `COc1ccc(-c2cnc(N)c(NCCCN3CCOCC3)n2)c(OC)c1OC` [CBK063676], the viability at 28.5 h, 10 µM turned out to be 113%.

For the compound `O=C(O)c1ccc(/C=N/N2CCN(Cc3ccccc3)CC2)cc1` [CBK265344], the viability at 28.5 h, 10 µM was 108%.

As to `CC(NC(=O)c1cc(C(F)(F)F)[nH]n1)c1ccccn1` (stereo not drawn) [CBK281712], the viability at 28.5 h, 10 µM was determined as 84.8%.

Regarding `CCc1nc(C2CCCN2c2ncc(C#N)cc2Cl)no1` (stereo not drawn) [CBK305183], the viability at 28.5 h, 10 µM is 91.1%.

Turning to `O=C1CC(c2cccs2)Sc2nc3ccccc3n21` (stereo not drawn) [CBK091627], the viability at 28.5 h, 10 µM was determined as 110%.

As for `CC(C)c1ccc(/C=C/C(=O)NCCC(N)=O)cc1` [CBK149646], the viability at 28.5 h, 10 µM stood at 81.9%.

`O=C(CSc1nc2ccccc2c2nc3ccccc3n12)Nc1cccc(Cl)c1` [CBK267872]: the viability at 28.5 h, 10 µM amounted to 94.2%.

As to `COc1ccc([C@@]23CC[C@@H](NS(=O)(=O)c4cccc5cccnc45)C[C@@H]2N(C)CC3)cc1OC` [CBK056849T], the viability at 28.5 h, 10 µM stood at 80.8%.

For `Clc1ccc(CN2CCC(NCCCn3cccn3)CC2)cc1` [CBK304004], the viability at 28.5 h, 10 µM came to 84.2%.

Take `CC(C)NC(=O)NC[C@H]1C[C@@H]2CCN1C[C@@H]2c1cc(-c2ccccc2)nn1C` [CBK289097]: the viability at 28.5 h, 10 µM was determined as 84.5%.

Consider `CC(C)(C)C1=CC2=NC3(CCCCCCC3)[C@@H]3C[C@@H](O)[C@@H](O)[C@@H]3N2O1` [CBK303256], for which the viability at 28.5 h, 10 µM is 113%.

As for `CCN(CC)S(=O)(=O)c1ccc(OC)c(NC(=O)C2c3ccccc3Oc3ccccc32)c1` [CBK264774], the viability at 28.5 h, 10 µM turned out to be 101%.

Consider `CC(C)c1nn(CN(C)Cc2ccccc2)c(=S)[nH]1` [CBK295166], for which the viability at 28.5 h, 10 µM stood at 102%.

As for `Cn1c(=O)c2c(nc(CN3CCCCC3)n2CCCO)n(C)c1=O` [CBK269280], the viability at 28.5 h, 10 µM is 106%.

For `O=C1C2(c3ccccc3)CN3CN(C2)CC1(c1ccccc1)C3` [CBK262245], the viability at 28.5 h, 10 µM turned out to be 93.5%.

Consider `CN(C)CCCN(C(=O)c1ccccc1)c1nc2ccc(F)cc2s1` [CBK287640], for which the viability at 28.5 h, 10 µM was 97.4%.

For the compound `COc1cccc([C@H]2CN(C(=O)c3ccccc3)[C@@H]3CCN(Cc4ccccc4C)C[C@H]23)c1` [CBK285610], the viability at 28.5 h, 10 µM worked out at 98.6%.

As to `CC(C)(C)c1ccc([S+]([O-])c2cncc(N3CCNCC3)n2)cc1` (stereo not drawn) [CBK051434C], the viability at 28.5 h, 10 µM turned out to be 88.4%.

Regarding `CCOC(=O)C1CSCCN1C(=O)c1ccc(-c2cnco2)cc1` (stereo not drawn) [CBK304208], the viability at 28.5 h, 10 µM was determined as 84.9%.

For `O=C(Nc1nnc(-c2ccc3c(c2)OCCO3)o1)c1cccc(F)c1` [CBK287402], the viability at 28.5 h, 10 µM was 101%.

For the compound `OCCN1CCN(c2nccnc2-c2ccncc2)CC1` [CBK038084], the viability at 28.5 h, 10 µM is 89.2%.

With `Cn1ccnc1C1(O)CCN(C(=O)CCc2ccccc2)CC1` [CBK283542], the viability at 28.5 h, 10 µM was 92%.

Take `O=C(NN1C(=O)c2ccccc2C1=O)c1cc(C(=O)NN2C(=O)c3ccccc3C2=O)cc(N2C(=O)c3ccccc3C2=O)c1` [CBK262100]: the viability at 28.5 h, 10 µM was 88.2%.

On to `CCN1CCN(C(=O)c2cc(C)[nH]n2)CC1` [CBK200377], for which the viability at 28.5 h, 10 µM worked out at 108%.

As to `Cn1nc(-c2ccc(Cl)cc2)cc1NC(=O)Cn1nnc(-c2ccc(F)cc2)n1` [CBK295203], the viability at 28.5 h, 10 µM is 82.7%.

Regarding `Cc1c(Cl)cccc1NC(=O)CSc1nccn1C` [CBK270297], the viability at 28.5 h, 10 µM stood at 91.5%.

As to `CCc1nc2c(OCC3CCCCO3)cccn2c1N(C)C(=O)c1ccc2c(c1)OCO2` (stereo not drawn) [CBK147860], the viability at 28.5 h, 10 µM is 82.9%.

Take `Cc1cc(S(=O)(=O)N2CCCCC2)ccc1OCC(=O)O` [CBK269254]: the viability at 28.5 h, 10 µM came to 80%.

On to `O=C(O)CC1S/C(=N/N=C/c2ccc(-c3cccc([N+](=O)[O-])c3)o2)NC1=O` (stereo not drawn) [CBK264517], for which the viability at 28.5 h, 10 µM turned out to be 113%.

`FC(F)(F)c1nc2ccccc2nc1OCCc1c[nH]c2ccccc12` [CBK115843]: the viability at 28.5 h, 10 µM was 93.2%.

As to `O=C(O)CNC(=O)CN1C(=O)c2cc(Cl)c(Cl)cc2C1=O` [CBK287156], the viability at 28.5 h, 10 µM came out at 92.3%.

As for `COCCCOc1nc2cc(Cl)c(Cl)cc2nc1N1CCCC1` [CBK115773], the viability at 28.5 h, 10 µM is 95.9%.

Regarding `O=C(Cn1cnc2c(cnn2-c2ccc(F)cc2)c1=O)Nc1ccc(F)cc1F` [CBK287537], the viability at 28.5 h, 10 µM stood at 89.3%.

Regarding `NC(=O)CN1CCC(Oc2nccnc2OCc2ccc(Cl)c(Cl)c2)CC1` [CBK083110], the viability at 28.5 h, 10 µM turned out to be 104%.

With `COc1ccccc1N(CCCc1cc(C(F)(F)F)cc(C(F)(F)F)c1)C(=O)C(N)C(C)C` (stereo not drawn) [CBK001004T], the viability at 28.5 h, 10 µM turned out to be 98.5%.

`O=C(CSc1nnc(COc2ccccc2)o1)N1CCN(c2ccccc2)CC1` [CBK267185]: the viability at 28.5 h, 10 µM amounted to 97.5%.

On to `Cc1ccc(OCC(=O)NC(=S)Nc2ccc(Cl)c(-c3nc4ncccc4o3)c2)cc1` [CBK263930], for which the viability at 28.5 h, 10 µM is 103%.

`CC(C)CCn1cc(C(=O)N2CCNCC2c2cccc(Cl)c2)nn1` (stereo not drawn) [CBK304115]: the viability at 28.5 h, 10 µM was 91.4%.

As for `O=C(O)COc1ccc(S(=O)(=O)N2CCc3ccccc32)cc1` [CBK269882], the viability at 28.5 h, 10 µM came to 102%.

For the compound `CCCc1n[nH]c(=S)n1CC(=O)NCc1ccc(Oc2cc(C)ccc2C)nc1` [CBK297742], the viability at 28.5 h, 10 µM came to 87.5%.

With `CS(=O)(=O)N1CCN(CC(O)Cn2c3ccc(Cl)cc3c3cc(Cl)ccc32)CC1` (stereo not drawn) [CBK264381], the viability at 28.5 h, 10 µM worked out at 94%.

`O=C(Nc1ncnc2c1ccn2C1CC(O)C(CO)O1)c1ccccc1` (stereo not drawn) [CBK201289]: the viability at 28.5 h, 10 µM came out at 96.3%.

Still in this series, the particulars now being: human, hela cells, % viability, bulk resorufin, single well.
As to `CCN(CC)CCCNC=C1C(=O)NC(=O)NC1=O` [CBK262403], the viability at 28.5 h, 10 µM is 94%.

Consider `Cc1cccc(OP(=O)(O)Oc2cccc(C)c2C)c1C` [CBK261316], for which the viability at 28.5 h, 10 µM amounted to 91.7%.

Take `COc1cccc2c1OC1(CCN(C(=O)c3cccn3C)CC1)OC2` [CBK061166]: the viability at 28.5 h, 10 µM was found to be 85.1%.

As to `CSc1nnc(C(N)Cc2c[nH]c3ccccc23)o1` (stereo not drawn) [CBK269950C], the viability at 28.5 h, 10 µM was determined as 89.8%.

(Values after paper PMC12040169 (PLOS Biology, 2025).)
